{"source": "patent US20160206688A1", "about": "“METHODS FOR TREATING BACTEREMIA AND OSTEOMYELITIS USING ORITAVANCIN” (THE MEDICINES COMPANY, priority 2013, published 2016)", "assay": "Oritavancin concentrations (PK samples) in compassionate use subject", "format": "in vivo, human", "procedure": "In response to a compassionate use request, oritavancin was administered to a subject having bacteremia.\nTreatment as of Feb. 8, 2013: oritavancin (1200 mg IV, Q2D×3 times, then QW×5 times).\nPK samples have been taken.\nAttending physician kept the infusion time at 4 hours.\nThe concentrations are consistent with expectations from modeling (modeled oritavancin concentration-time profile is attached), with oritavancin attaining peaks of about 120-130 ug/mL and troughs of around 5-10 ug/mL for the loading phase and of around 5 ug/mL for the weekly dosing phase.", "data": [{"molecule": "CN[C@H](CC(C)C)C(=O)N[C@H]1C(=O)N[C@@H](CC(N)=O)C(=O)N[C@H]2C(=O)N[C@H]3C(=O)N[C@H](C(=O)N[C@H](C(=O)O)c4cc(O)cc(O)c4-c4cc3ccc4O)[C@H](O[C@H]3C[C@](C)(N)[C@@H](O)[C@H](C)O3)c3ccc(c(Cl)c3)Oc3cc2cc(c3O[C@@H]2O[C@H](CO)[C@@H](O)[C@H](O)[C@H]2O[C@H]2C[C@](C)(NCc3ccc(-c4ccc(Cl)cc4)cc3)[C@@H](O)[C@H](C)O2)Oc2ccc(cc2Cl)[C@H]1O", "note": "[Oritavancin, N-(4-(4-chlorophenyl)benzyl)A82846B]", "values": [{"measurement": "peaks (oritavancin concentration)", "setting": "1200 mg IV, Q2D x3 then QW x5", "value": "120 to 130", "unit": "µg/mL"}, {"measurement": "Oritavancin concentration", "setting": "Peak - First Dose, 1200 mg IV", "value": 114.793, "unit": "µg/mL"}, {"measurement": "Oritavancin concentration", "setting": "Peak - Third Dose, 1200 mg IV", "value": 133.581, "unit": "µg/mL"}, {"measurement": "Oritavancin concentration", "setting": "Trough - First Dose, 1200 mg IV", "value": 4.272, "unit": "µg/mL"}, {"measurement": "Oritavancin concentration", "setting": "Trough - Second Dose, 1200 mg IV", "value": 7.614, "unit": "µg/mL"}, {"measurement": "troughs (oritavancin concentration)", "setting": "loading phase", "value": "5 to 10", "unit": "µg/mL"}, {"measurement": "Oritavancin concentration", "setting": "trough, fifth dose, 1200 mg IV", "value": 4.584, "unit": "µg/mL"}, {"measurement": "Oritavancin concentration", "setting": "trough, fourth dose, 1200 mg IV", "value": 4.256, "unit": "µg/mL"}, {"measurement": "Oritavancin concentration", "setting": "trough, sixth dose, 1200 mg IV", "value": 4.489, "unit": "µg/mL"}, {"measurement": "Oritavancin concentration", "setting": "trough, third dose, 1200 mg IV", "value": 3.775, "unit": "µg/mL"}, {"measurement": "accumulation", "setting": "weekly dosing phase", "value": "no evidence of substantial accumulation"}, {"measurement": "troughs (oritavancin concentration)", "setting": "weekly dosing phase", "value": "around 5 ug/mL"}]}]}
